Source: patent US7541367B2, “3-benzoimidazolyl-pyrazolopyridines useful in treating kinase disorders” (Janssen Pharmaceutica, N.V., priority 2005, dated 2009)

How the values were obtained:
Lyn kinase = target: T1, Lyn kinase (Homo sapiens, UniProt P07948); assay: Lyn Kinase Assay; format: biochemical; conditions: 5 μM ATP
T1 construct: purchased Upstate Biotechnology, Lake Placid, N.Y
Experimental: Test compound in 100% DMSO (0.5 μL) was added to the appropriate wells. Diluted Lyn kinase (human) (Accession Number EMBL M16038) (Upstate Biotechnology, Lake Placid, N.Y.) (diluted in a buffer consisting of 50 mM Tris at pH 7.5, 0.1 mM EGTA, Sodium Vanadate (0.1 mM), β-mercaptoethanol (0.1%) and 1 mg/mL bovine serum albumin) (2.5 μL) was added to the wells to initiate the reactions.
The reaction plates were incubated at 30° C. for 40 min. The reaction was terminated by the addition of a 3% phosphoric acid solution (5 μL). The reaction product (10 μL) was spotted onto a P30 filtermat and washed for 5 minutes in phosphoric acid (75 mM). The wash sequence was repeated two more times, followed with one final wash in methanol. The plates were then dried, sealed and read on the TopCount scintillation counter after adding 30 μL scintillation fluid.
A maximum and minimum signal for the assay was determined on each plate. The percent inhibition of a test compound was calculated according to the formula: […]
For a series of test concentrations, the IC50 was derived by graphing percent inhibition against the log of the concentrations tested for a given compound with results shown in Table 3
For compounds with multiple values, each value represents a separate assay result.

VEGF-R2 = target: T2, VEGF-R2 (Rattus norvegicus, UniProt O08775); assay: VEGF-R2 kinase screening assay (33P-ATP FlashPlate); format: biochemical; conditions: rat VEGF-R2 kinase domain; 10 μM ATP; 1 hr at 30° C;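 also: Read-out is ³³P incorporation from ³³P-γ-ATP into biotinylated peptide substrate captured on streptavidin FlashPlate, counted by scintillation, 1% DMSO final, inhibition scaled between per-plate maximum and minimum signals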
T2 construct: polyhistidine (N)

c-Src kinase = target: T3, c-Src kinase (Homo sapiens, UniProt P12931); assay: c-Src Kinase Assay; format: biochemical; conditions: 5 μM ATP
T3 construct: purchased Upstate Biotechnology, Lake Placid, N.Y
Summary of the method: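 Human c-Src phosphorylated Cdc2 peptide (100 μM) […]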

HCT-116 colon carcinoma = assay: Cell Proliferation Inhibition Assay (14C-thymidine incorporation), HCT-116; format: cell-based; conditions: Homo sapiens, HCT-116, HCT-116 cells;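 also: proliferation measured as methyl 14C-thymidine uptake into new DNA, counted in 96-well scintillating microplates, compared with DMSO-only control wells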
HER2 = target: T4, HER2 (Homo sapiens, UniProt P04626); assay: HER2 kinase screening assay (33P-ATP FlashPlate); format: biochemical; conditions: GST-HIS6 HER-2 aa 679 to 1255; 10 μM ATP; 1 hr at 30° C;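 also: Biotin-poly(GT) 4:1 peptide captured on streptavidin FlashPlate, 33P transfer from γ-ATP read by scintillation counting, lower incorporation means inhibition, 1% DMSO final, 100 µL reaction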
T4 construct: GST (Glutathione-S-Transferase) (N); HIS6 (N); thrombin cleavage site (N); purchased Proqinase, Freiburg, Germany

Aurora-A = target: T5, Aurora-A (Mus musculus, UniProt P97477); assay: Aurora-A kinase screening assay (33P-ATP FlashPlate); format: biochemical; conditions: 10 μM ATP, 1 hr at 30° C;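 also: His-tagged mouse Aurora-A phosphorylating a biotinylated peptide captured on streptavidin plates, read as 33P uptake by scintillation counting, 1% DMSO, inhibition scaled between per-plate maximum and minimum signals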
T5 construct: polyhistidine (N)
T5 sequence (P97477 1-395): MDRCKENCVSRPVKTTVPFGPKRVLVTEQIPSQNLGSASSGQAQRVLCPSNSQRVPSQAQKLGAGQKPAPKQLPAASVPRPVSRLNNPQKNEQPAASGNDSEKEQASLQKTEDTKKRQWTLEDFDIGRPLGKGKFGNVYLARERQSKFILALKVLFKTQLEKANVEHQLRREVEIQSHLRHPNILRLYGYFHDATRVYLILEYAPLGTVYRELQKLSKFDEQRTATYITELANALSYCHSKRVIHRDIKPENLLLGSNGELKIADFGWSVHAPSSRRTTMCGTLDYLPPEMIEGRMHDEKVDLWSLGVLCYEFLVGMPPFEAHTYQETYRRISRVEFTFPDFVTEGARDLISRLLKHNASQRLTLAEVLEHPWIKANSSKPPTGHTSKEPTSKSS

RET = target: T6, RET (Homo sapiens, UniProt P07949); assay: RET kinase screening assay (33P-ATP FlashPlate); format: biochemical; conditions: human RET kinase domain; 10 μM ATP; 1 hr at 30° C;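 also: biotinylated peptide substrate captured on streptavidin FlashPlate, 33P phosphate transfer read by scintillation counting, 1% DMSO, lower incorporation means inhibition, percent relative to per-plate maximum and minimum signals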
T6 construct: polyhistidine (N)
T6 sequence (P07949 658-1114 limits assumed): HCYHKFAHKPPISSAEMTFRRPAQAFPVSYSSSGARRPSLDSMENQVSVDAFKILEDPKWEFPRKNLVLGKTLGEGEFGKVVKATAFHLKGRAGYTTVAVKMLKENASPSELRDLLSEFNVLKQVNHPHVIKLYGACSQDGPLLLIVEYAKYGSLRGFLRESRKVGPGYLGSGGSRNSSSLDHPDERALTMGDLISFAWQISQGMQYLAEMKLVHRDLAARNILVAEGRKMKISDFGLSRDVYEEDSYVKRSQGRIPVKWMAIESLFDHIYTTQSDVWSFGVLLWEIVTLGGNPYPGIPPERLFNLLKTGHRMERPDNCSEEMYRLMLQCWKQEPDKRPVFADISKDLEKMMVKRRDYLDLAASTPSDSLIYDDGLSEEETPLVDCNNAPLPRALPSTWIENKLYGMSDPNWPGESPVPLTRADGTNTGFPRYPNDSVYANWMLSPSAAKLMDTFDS

CDK1 = target: T7, CDK1 (Homo sapiens, UniProt P06493); assay: CDK-1 kinase screening assay (33P-ATP FlashPlate); format: biochemical; conditions: human CDK1 with cyclin B; 10 μM ATP; 1 hr at 30° C
T7 construct: purchased New England Biolabs, Beverly, Mass; 6020; host or cells: insect cells

A375 malignant melanoma = assay: Cell Proliferation Inhibition Assay (14C-thymidine incorporation), A375; format: cell-based; conditions: Homo sapiens, A-375, A375 cells;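 also: proliferation measured by radiolabelled thymidine uptake into new DNA, counted in scintillating 96-well plates, compound-treated wells compared with DMSO-only control wells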
[1] = tested on: HeLa cervical adenocarcinoma; assay: Cell Proliferation Inhibition Assay (14C-thymidine incorporation), HeLa; format: cell-based; conditions: Homo sapiens, HeLa, HeLa cells;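 also: test compound in DMSO added to cells seeded in scintillating 96-well plates, DMSO-only wells as control, uptake of methyl 14C-thymidine into new DNA counted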

T1 sequence (P07948 whole entry): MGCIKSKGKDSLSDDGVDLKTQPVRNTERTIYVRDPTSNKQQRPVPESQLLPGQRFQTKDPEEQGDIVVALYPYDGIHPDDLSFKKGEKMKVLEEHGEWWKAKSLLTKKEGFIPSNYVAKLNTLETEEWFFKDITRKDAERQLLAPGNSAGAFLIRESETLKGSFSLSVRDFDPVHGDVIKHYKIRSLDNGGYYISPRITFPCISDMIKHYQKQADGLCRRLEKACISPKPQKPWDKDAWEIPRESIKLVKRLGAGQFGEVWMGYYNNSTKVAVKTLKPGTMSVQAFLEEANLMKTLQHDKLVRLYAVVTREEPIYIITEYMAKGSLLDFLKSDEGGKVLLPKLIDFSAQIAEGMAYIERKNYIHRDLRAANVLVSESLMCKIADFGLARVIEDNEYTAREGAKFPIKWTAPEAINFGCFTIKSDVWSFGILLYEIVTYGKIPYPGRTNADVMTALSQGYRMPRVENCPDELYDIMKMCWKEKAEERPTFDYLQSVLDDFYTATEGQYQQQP
T4 sequence (P04626 679-1255): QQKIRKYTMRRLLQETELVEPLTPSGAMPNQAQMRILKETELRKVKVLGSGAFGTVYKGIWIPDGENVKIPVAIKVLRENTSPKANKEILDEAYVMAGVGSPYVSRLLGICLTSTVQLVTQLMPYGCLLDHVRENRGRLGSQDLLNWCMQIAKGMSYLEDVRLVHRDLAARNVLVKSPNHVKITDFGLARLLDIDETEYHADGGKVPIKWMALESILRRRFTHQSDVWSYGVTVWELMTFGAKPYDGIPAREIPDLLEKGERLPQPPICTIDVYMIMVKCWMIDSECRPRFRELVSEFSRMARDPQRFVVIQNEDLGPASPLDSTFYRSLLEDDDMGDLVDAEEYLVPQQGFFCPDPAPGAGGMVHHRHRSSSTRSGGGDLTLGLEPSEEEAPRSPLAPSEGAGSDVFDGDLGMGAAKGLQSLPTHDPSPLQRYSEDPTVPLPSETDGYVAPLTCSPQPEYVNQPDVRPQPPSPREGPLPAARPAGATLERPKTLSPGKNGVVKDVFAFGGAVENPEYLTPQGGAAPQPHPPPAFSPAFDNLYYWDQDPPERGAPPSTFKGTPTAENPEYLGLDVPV
T3 sequence (P12931 whole entry): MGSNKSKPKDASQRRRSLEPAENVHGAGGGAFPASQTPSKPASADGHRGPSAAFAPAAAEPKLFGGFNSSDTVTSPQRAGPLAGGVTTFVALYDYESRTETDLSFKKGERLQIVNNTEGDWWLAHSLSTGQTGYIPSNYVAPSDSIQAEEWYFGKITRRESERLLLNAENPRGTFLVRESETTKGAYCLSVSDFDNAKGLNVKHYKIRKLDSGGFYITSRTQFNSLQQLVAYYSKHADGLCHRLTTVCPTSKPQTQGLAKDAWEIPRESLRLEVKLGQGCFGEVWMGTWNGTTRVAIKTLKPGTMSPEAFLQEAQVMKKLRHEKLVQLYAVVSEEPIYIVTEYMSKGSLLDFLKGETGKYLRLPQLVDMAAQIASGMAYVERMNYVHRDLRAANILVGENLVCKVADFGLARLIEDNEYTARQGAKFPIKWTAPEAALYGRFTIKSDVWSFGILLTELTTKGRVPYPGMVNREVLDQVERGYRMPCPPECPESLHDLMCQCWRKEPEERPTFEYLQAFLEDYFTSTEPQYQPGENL
T2 sequence (O08775 786-1343): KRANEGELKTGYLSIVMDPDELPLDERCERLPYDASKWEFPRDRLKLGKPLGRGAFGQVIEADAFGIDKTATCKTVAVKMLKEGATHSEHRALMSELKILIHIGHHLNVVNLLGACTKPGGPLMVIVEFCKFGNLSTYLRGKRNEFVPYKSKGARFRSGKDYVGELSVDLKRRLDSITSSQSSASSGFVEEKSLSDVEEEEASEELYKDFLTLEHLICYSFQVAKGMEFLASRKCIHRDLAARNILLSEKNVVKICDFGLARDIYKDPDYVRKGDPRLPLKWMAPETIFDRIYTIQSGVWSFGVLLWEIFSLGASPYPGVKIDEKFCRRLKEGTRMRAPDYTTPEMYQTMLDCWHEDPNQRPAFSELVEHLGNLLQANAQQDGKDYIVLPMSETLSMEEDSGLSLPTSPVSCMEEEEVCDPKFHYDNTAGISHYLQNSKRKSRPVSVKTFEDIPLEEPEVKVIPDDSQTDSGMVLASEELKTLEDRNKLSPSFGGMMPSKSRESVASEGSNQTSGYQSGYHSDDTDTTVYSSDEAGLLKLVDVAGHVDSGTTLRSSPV
T7 sequence (P06493 whole entry): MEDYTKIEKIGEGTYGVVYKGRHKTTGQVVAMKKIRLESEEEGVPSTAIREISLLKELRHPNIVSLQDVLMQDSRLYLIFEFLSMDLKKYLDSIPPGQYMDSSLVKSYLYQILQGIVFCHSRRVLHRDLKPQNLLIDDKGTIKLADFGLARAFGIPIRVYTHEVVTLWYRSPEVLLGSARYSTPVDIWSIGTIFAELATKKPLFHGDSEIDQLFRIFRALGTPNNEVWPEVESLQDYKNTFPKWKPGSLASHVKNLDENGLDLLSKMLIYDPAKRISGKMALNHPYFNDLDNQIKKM
T7 sequence (P14635 whole entry partner): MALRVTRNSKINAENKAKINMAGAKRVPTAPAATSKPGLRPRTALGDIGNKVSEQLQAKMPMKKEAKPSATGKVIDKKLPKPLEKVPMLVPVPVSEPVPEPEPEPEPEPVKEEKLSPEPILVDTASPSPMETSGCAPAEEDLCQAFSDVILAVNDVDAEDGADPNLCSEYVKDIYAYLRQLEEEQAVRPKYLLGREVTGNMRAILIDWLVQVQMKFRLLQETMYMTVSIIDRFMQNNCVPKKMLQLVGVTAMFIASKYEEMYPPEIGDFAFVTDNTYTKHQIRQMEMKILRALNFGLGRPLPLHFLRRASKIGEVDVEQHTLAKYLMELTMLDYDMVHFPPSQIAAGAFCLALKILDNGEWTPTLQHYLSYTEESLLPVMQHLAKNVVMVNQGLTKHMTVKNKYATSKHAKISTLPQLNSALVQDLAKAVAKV

| IC50 (Lyn kinase) [nM] | IC50 (VEGF-R2) [nM] | IC50 (c-Src kinase) [nM] | IC50 (HCT-116 colon carcinoma) [nM] | IC50 (HER2) [nM] | IC50 (Aurora-A) [nM] | IC50 (RET) [nM] | IC50 (CDK1) [nM] | IC50 (A375 malignant melanoma) [nM] | IC50 [1] [nM] | Structure (SMILES) |
| --- | --- | --- | --- | --- | --- | --- | --- | --- | --- | --- |
| 5.21 | > 100000 | 1.04 | 455 | > 100000 | 168 | > 10000 | 40.6 | 242 | 258 | CCN(CC)c1ccc(NC(=O)c2cccc3[nH]c(-c4n[nH]c5ncc(-c6cncc7ccccc67)cc45)nc23)c(C)c1 [Cpd 50, 2-(5-isoquinolin-4-yl-1H-pyrazolo[3,4-b]pyridin-3-yl)-1H-benzoimidazole-4-carboxylic acid (4-diethylamino-2-methyl-phenyl)-amide] |
| 6.31 | 702 | 1.4 | 225 | ~100000 | 230 | ~10000 | 80.6 | 194 | 159 | Cc1ccccc1NC(=O)c1cccc2[nH]c(-c3n[nH]c4ncc(-c5cncc6ccccc56)cc34)nc12 [Cpd 46, 2-(5-isoquinolin-4-yl-1H-pyrazolo[3,4-b]pyridin-3-yl)-1H-benzoimidazole-4-carboxylic acid o-tolylamide] |
| 4060 | 160 | 621 | 26.1 | > 100000 | ~10000 | > 100000 | 80.3 | 11.3 | 1570 | COCc1cccc2[nH]c(-c3n[nH]c4ncc(-c5cncc(OC)c5)cc34)nc12 [Cpd 64, 3-(4-methoxymethyl-1H-benzoimidazol-2-yl)-5-(5-methoxy-pyridin-3-yl)-1H-pyrazolo[3,4-b]pyridine] |
| 299 | 1030 | 570 | 345 | > 100000 | 3620 | ~10000 | 24.6 | 247 | 454 | CCN(CC)Cc1cccc2[nH]c(-c3n[nH]c4ncc(-c5cccnc5)cc34)nc12 [Cpd 52, diethyl-[2-(5-pyridin-3-yl-1H-pyrazolo[3,4-b]pyridin-3-yl)-1H-benzoimidazol-4-ylmethyl]-amine] |
| 1080 | 639 | 886 | 313 | > 100000 | > 1000 | ~1000 | 2.54 | 268 | 459 | CNCc1cncc(-c2cnc3[nH]nc(-c4nc5c(COC)cccc5[nH]4)c3c2)c1 [Cpd 56, {5-[3-(4-methoxymethyl-1H-benzoimidazol-2-yl)-1H-pyrazolo[3,4-b]pyridin-5-yl]-pyridin-3-ylmethyl}-methyl-amine] |
| 1.33 | > 100 | 0.653 | > 10000 | 31000 | 40 | > 100000 | 34.9 | 28500 | 7520 | NC1CCC(NC(=O)c2cccc3[nH]c(-c4n[nH]c5ncc(-c6cncc7ccccc67)cc45)nc23)CC1 (centres unmarked) [Cpd 45, 2-(5-isoquinolin-4-yl-1H-pyrazolo[3,4-b]pyridin-3-yl)-1H-benzoimidazole-4-carboxylic acid (4-amino-cyclohexyl)-amide] |
| 379 | 341 | 288 | 128 | > 100000 | > 1000 | ~10000 | 88.9 | 357 | 771 | COCc1cccc2[nH]c(-c3n[nH]c4ncc(-c5cncc(CO)c5)cc34)nc12 [Cpd 44, {5-[3-(4-methoxymethyl-1H-benzoimidazol-2-yl)-1H-pyrazolo[3,4-b]pyridin-5-yl]-pyridin-3-yl}-methanol] |
| 277 | 115 | 315 | 62 | > 100000 | > 1000 | > 100000 | > 1000 | 22.6 | 3090 | COCc1cccc2[nH]c(-c3n[nH]c4ncc(-c5ccncc5)cc34)nc12 [Cpd 65, 3-(4-methoxymethyl-1H-benzoimidazol-2-yl)-5-pyridin-4-yl-1H-pyrazolo[3,4-b]pyridine] |
